pIC50: −log10 of the molar value.
Columns and labels:
B16 melanoma cells = assay: B16 melanoma allograft in C57BL/6 mice; assay type: in vivo; conditions: 40 mg/kg daily subcutaneous injections, 21 days
Experimental: In the example, C57BL/6 mice were subcutaneously injected with B16 melanoma cells. Tumor cells were allowed to develop for one week, after that mice were treated with daily subcutaneous injections of vehicle or DW192 (40 mg/kg) for 21 days. FIG. 12A is a plot showing the tumor growth curves.

NCI-60 cell line panel = assay: NCI-60 Human Tumor Cell Lines Screen, one-dose screen (SRB); assay type: cell-based; conditions: 48 hours
Excerpt: In this example, the cytotoxic effect of DW192 was assess via the NCI-60 Human Tumor Cell Lines Screen, provided by the Developmental Therapeutics Program (DTP) of the National Cancer Institute (NCI) in the United States. This screening helps to identify and characterize the cytotoxic effect of compounds on 60 different human cancer cell lines, including leukemia, melanoma, and cancers of the lung, colon, brain, ovary, breast, prostate and kidneys. The screening comprised of two assays: one-dose screen and five-dose screen. In one-dose screen, 10 μM of DW192 was tested for 48 hours. In five-dose screen, four, 10-fold of ½ log serial dilutions were tested for 48 hours.
Method (Extracted from the NCI-60 Website)
Cells were seeded into 96-well plates in 100 uL at plating densities ranging from 5,000 to 40,000 cells/well depending on the doubling time of individual cell lines. Plates were incubated at 37° C.+5% CO2+95% air+100% relative humidity for 24 hours before adding compounds. Two plates of each cell line were fixed in situ with TCA, to represent a measurement of the cell population for each cell line at the time of drug addition (Tz). 100 uL of compounds in four, 10-fold of ½ log serial dilutions were added to the wells already containing 100 uL of medium. Plates were incubated at 37° C.+5% CO2+95% air+100% relative humidity for an additional 48 hours.
To terminate the assay, adherent cells were fixed in situ by the gentle addition of 50 uL of cold 50% (w/v) TCA (final concentration, 10% TCA) and incubated for 60 min at 4° C. For suspension cells, 50 uL of 80% TCA (final concentration, 16% TCA) was used.
Supernatant was discarded, and the plates were wash five times with tap water and air dried. […]
Remaining stained cells were solubilized with 10 mM trizma base. Absorbance at 515 nm was measured.
Percentage growth was calculated using the following equations:
[formula] [formula] • where Tz=absorbance at time zero, C=absorbance of control growth, Ti=absorbance of test growth in the presence of drug at the five concentration levels.

KP-1 cells = assay: Dose-dependent CCK8 viability assay; assay type: cell-based; conditions: Mus musculus, 48 hours
Experimental: (§1) In this example, dose-dependent CCK8 Viability assay was performed to determine the IC50 (the concentration of compound to achieve 50% viability) of several of the hit compounds identified from Example 2. A variety of cell lines were used: • Jurkat cells: Human leukemia • A549 cells: Human NSCLC • KP-1 cells: Mouse NSCLC with KRAS and P53 mutations • MCF-7 cells: Human breast cancer
(§2) Method for Adherent Cells (A549, MCF-7 and KP-1 Cells)
(§3) 5000 cells/100 uL were seeded in 96-well plates and incubate at 37° C.+5% CO2 overnight. Media were replaced with 100 uL of compound per well in 6 replicates in a series of 2-fold dilutions. The following controls were prepared.
(§4) Blank control: 100 uL 0.1% DMSO in media with no cells per well.
(§5) Positive control: 100 uL of 10 uM 5-flurouracil per well.
(§6) Negative control: 100 uL of 0.1% DMSO in media per well.
(§7) Each 96-well plate included 1 compound in 7 concentrations and a complete set of controls (in 6 replicates).
(§8) Cells were incubated at 37° C.+5% CO2 for 46 hours. 10 uL of CCK8 solution was added to each well. Cells were incubated at 37° C.+5% CO2 for 2 hours. Absorbance at 450 nm was measured using a multiplate reader.
(§9) Viability was calculated using the equation: […]

MCF-7 cells = assay: Dose-dependent CCK8 viability assay; assay type: cell-based; conditions: Homo sapiens, MCF7, 48 hours
Experimental: as §1, §2, §3, §4, §5, §6, §7, §8, §9

Jurkat cells [1] = assay: Dose-dependent CCK8 viability assay; assay type: cell-based; conditions: Homo sapiens, 48 hours
Experimental: as §1
Method for Suspension Cells (Jurkat Cells)
5000 cells/90 uL were seeded in 96-well plates. 10 uL of compound (10×) in various concentrations was added to each well in 6 replicates. The following controls were prepared.
Blank control: 10 uL 1% DMSO in media with no cells per well.
Positive control: 10 uL of 100 uM 5-flurouracil (10×) per well.
Negative control: 10 uL of 1% DMSO in media (10×) per well.
Note: Each 96-well plate can test 1 compound in 7 concentrations with a complete set of controls (in 6 replicates)
as §8
Viability was calculated using this equation: […]

A549 cells [2] = assay: Dose-dependent CCK8 viability assay; assay type: cell-based, human
Experimental: as §1, §2, §3, §4, §5, §6, §7, §8, §9

Jurkat cells [3] = assay: Single-dose CCK-8 cell viability screening (suspension cells); assay type: cell-based, human; conditions: Jurkat cells, 50 uM
A549 cells [4] = assay: Single-dose CCK-8 cell viability screening (adherent cells); assay type: cell-based, human; conditions: A549 cells, 50 uM, 48 h, CCK-8
[5] = as above; assay type: cell-based, human; conditions: Homo sapiens, A549, 48 h, average of A549 and Jurkat % viability, 50 uM, 48 h
[6] = system: HT22 mouse hippocampal cell line; assay: RSL3-induced ferroptosis model, cell viability (CCK-8)
Experimental: In this example, the anti-ferroptotic properties of the BB analogues described in preceding examples were evaluated by a RSL3-induced ferroptosis model. […] To evaluate the anti-ferroptosis activity of BB analogues, we developed a phenotypic screening based on RSL3-induced ferroptosis model on HT22 mouse hippocampal cell line, HMC3 microglial cell line and BV-2 murine microglial cell line which were co-treated or pre-treated with RSL3 and BB analogues for 2-24 h, and the cell viability was subsequently measured.
HMC3 cell line was maintained in Minimum Essential Medium (MEM, Gibco) supplemented with 1× non-essential amino acid (Gibco), 1 mM sodium pyruvate (Gibco), 10% fetal bovine serum (FBS) (Gibco) and 1% penicillin/streptomycin (Gibco). BV-2 cell line was maintained in Roswell Park Memorial Institute (RPMI) 1640 medium (Gibco) supplemented with 10% FBS and 1% penicillin/streptomycin, and HT22 cell line was maintained in Dulbecco's Modified Eagle's Medium (DMEM) (Gibco) supplemented with 10% FBS and 1% penicillin/streptomycin. All cells were incubated at 37° C. in a humidified atmosphere under 5% CO2.
For phenotypic screening of bilobalide (BB) analogues, 5,000 cells per well (100 uL volume) of HT22, HMC3 or BV-2 cells were placed in 96-well plate and allowed to adhere for 22 h. After which, cells were pre-treated with 200 nM (on HT22, HMC3) or 500 nM (on BV-2) of RSL3 (Bidepharm) for 2 h respectively. Medium was then replaced by 50 μM BB analogues and followed by 22 h incubation subsequently. Cell viability was measured using cell counting kit-8 (CCK-8) (MCE). For dose-response of BB analogues, RSL3, HT22 and HMC3 cells (seeded on 96-well plates at 5,000 cells per well) were treated with multiple doses of RSL3 for 2 h. […] Cell viability was measured after 22 h treatment by CCK-8. […] Cell viability was measured by CCK-8 using CLARIOstar monochromator multimode plate reader under 450 nm wavelength.
In this example, the cells were pre-treated with RSL3 (200 nM for HT22 and HMC3, 500 nM for BV-2) for two hours, followed by bilobalide analogues treatment (50 PM) for 22 hours. Cell viability was measured using cell counting kit-8 (CCK-8); n=5 technical replicates. […] Such effect was further investigated by treating the cell lines with various doses of RSL3.

[7] = system: BV-2 murine microglial cell line; assay: as above
Experimental: In this example, the anti-ferroptotic properties of the BB analogues described in preceding examples were evaluated by a RSL3-induced ferroptosis model. […] To evaluate the anti-ferroptosis activity of BB analogues, we developed a phenotypic screening based on RSL3-induced ferroptosis model on HT22 mouse hippocampal cell line, HMC3 microglial cell line and BV-2 murine microglial cell line which were co-treated or pre-treated with RSL3 and BB analogues for 2-24 h, and the cell viability was subsequently measured. […]
For phenotypic screening of bilobalide (BB) analogues, 5,000 cells per well (100 uL volume) of HT22, HMC3 or BV-2 cells were placed in 96-well plate and allowed to adhere for 22 h. […] Cell viability was measured using cell counting kit-8 (CCK-8) (MCE). […] Cell viability was measured after 22 h treatment by CCK-8. […] Cell viability was measured by CCK-8 using CLARIOstar monochromator multimode plate reader under 450 nm wavelength.
In this example, the cells were pre-treated with RSL3 (200 nM for HT22 and HMC3, 500 nM for BV-2) for two hours, followed by bilobalide analogues treatment (50 PM) for 22 hours. Cell viability was measured using cell counting kit-8 (CCK-8); n=5 technical replicates. […]

[8] = cell free
LC3-II/LC3-I = conditions: HMC3, co-treated with RSL3 1 μM and compound 10, 5, 2.5 μM, 3 h
Experimental: After incubation, cells were washed 3 times with ice-cold PBS and lysed in RIPA buffer containing 1× protease inhibitor cocktail (MCE) and nuclease (Biyotime) on ice for 30 min. All samples were centrifuged and then quantified by bicinchoninic acid (BCA) assay (Pierce). Cell lysates were diluted with Laemmli Sample Buffer (Bio-Rad) and heated at 95° C. for 5 min. Samples were separated by 12% SDS-PAGE and transferred to a polyvinylidene difluoride membrane. Membrane was incubated with 3% bovine serum albumin (BSA, Sigma-Aldrich) for 1 h, and subsequently incubated with indicated primary antibody overnight at 4° C. After incubation, membrane was washed by wash buffer (containing 20 mM Tris, 150 mM NaCl and 0.1% Tween 20), and incubated with peroxidase-conjugated secondary antibody at room temperature for 1 h. Antibodies for GPX4 (52455, Cell Signaling Technology) was used at 1:500 dilution, GAPDH (sc-32233, Santacruz) was used at 1:3000 dilution, LC3B (A19665, ABclonal) was used at 1:1000 dilution. Goat anti-rabbit IgG HRP-linked antibody (7074, CST) was used at 1:2500 dilution, goat anti-mouse IgG (H+L) secondary antibody DyLight™ 488 (35502, Invitrogen) was used at 1:5000 dilution. Blot was washed and visualized using Clarity Western ECL Substrate (Bio-Rad) with ChemiDoc MP Imaging System (Bio-Rad). Band intensity was normalized by image J software.

GPX4 = GPX4 protein level by Western-blot; assay type: cell-based; conditions: HMC3, co-treated with RSL3 1 μM and compound 10, 5, 2.5 μM, 3 h
Excerpt: As mentioned above, RSL3 treatment results in an oxidized environment in cells, which promotes the CMA to scavenge damaged proteins including GPX4 or glyceraldehyde-3-phosphate dehydrogenase (GAPDH), a well-known CMA substrate. To gain insights into the mechanism of action of bilobalide analogue XBB-037 against the RSL3-induced ferroptosis, HMC3 cells were pre-treated with RSL3, followed by treatment with or without bilobalide analogue XBB-037.
In FIN56 assay, HMC3 (300,000 cells per well on 6-well plate) was pre-treated with FIN56 (2.5, 1.25, 0.625 μM) for 2 h, followed by 8 h treatment of DMSO only (0.1%) or XBB-037 (50 μM). In RSL3 assay, HMC3 (300,000 cells per well on 6-well plate) was pre-treated with RSL3 (750, 500, 250 nM) for 2 h, followed by 4 h or 8 h treatment of DMSO only (0.1%) or XBB-037 (50 μM). […] Antibodies for GPX4 (52455, CST) was used at 1:500 dilution, β-Actin (AC026, ABclonal) was used at 1:400,000 dilution, GAPDH (AC035, ABclonal) was used at 1:3000 dilution. […] Band intensity was normalized by image lab software.
Now referring to FIGS. 7E-7F, GPX4 levels in HMC3 cells pre-treated with RSL3 are shown. Protein levels of GPX4 and […] at 0, 250, 500 or 750 nM RSL3 were measured by Western-blot. HMC3 cells were pretreated with RSL3 for 2 hours and then treated with or without 50 μM bilobalide analogue XBB-037 for 4 hours.
In addition to […], FIN56 was further used to investigate the GPX4 regulation of bilobalide analogue XBB-037. As mentioned above, FIN56 is a Class III ferroptosis inducer, which causes the depletion of cellular GPX4 levels without affecting GPX4 activity. In this experiment, HMC3 cells were pretreated with FIN56 for 2 hours and then treated with or without 50 μM XBB-037 for 8 hours. Protein levels were measured by Western-blotting using indicated antibodies. Data were plotted as mean±s.d., n=3 technical replicates. **p<0.01. Statistical analyses were performed by two-way ANOVA with multiple comparisons using Two-stage linear step-up procedure of Benjamini, Krieger and Yekutieli multiple comparisons test. […]

HMC3 cells [9] = assay: Cytotoxicity, cell viability of HMC3 cells; assay type: cell-based; conditions: 24 h treatment
Excerpt: Now referring to FIG. 11A, a chart showing the cell viability (%) of HMC3 cells treated with SXQ087-1, XBB-037 or bilobalide.

HMC3 cells [10] = assay: Lipid peroxidation level by flow cytometry using C11-BODIPY; assay type: cell-based
Experimental: For flow cytometry, HMC3 cells (seeded 50,000 cells per well on 24-well plate one day prior to the experiment) were pretreated with 50 nM RSL3 for 2 h. […] After which medium was replaced with BODIPY™ 581/591C11 (10 μM, Invitrogen) or CellROX™ Green (5 μM, Invitrogen) for 30 min staining. Cells were then washed 3 times with PBS and collected. Fluorescence was measured by BD FACSympgony A5.2 SORP Flow Cell Analyzer (BD Biosciences).
Disequilibrium ROS level acts as a direct initiator of lipid peroxidation, which is one of the major hallmarks of ferroptosis. In this example, HMC3 cells according to the conditions in Table 4 were subjected to measurement of lipid peroxidation level using flow cytometry and the lipid peroxidation sensor C11-BODIPY.
For flow cytometry, HMC3 cells (seeded 50,000 cells per well on 24-well plate one day prior to the experiment) were pretreated with 50 nM RSL3 for 2 h. After RSL3 treatment, medium was replaced by DMSO (0.1%) only, SXQ087-1 (10, 5 and 2.5 μM), following by 3 h treatment. After which medium was replaced with BODIPY™ 581/591C11 (10 μM, Invitrogen) for 30 min staining. Cells were then washed 3 times with PBS and collected. Fluorescence was measured by BD FACSympgony A5.2 SORP Flow Cell Analyzer (BD Biosciences).
Lipid peroxidation is one of the major hallmarks of ferroptosis. In this example, HMC3 cells according to the conditions in Table 5 were subjected to measurement of lipid peroxidation level using flow cytometry and the lipid peroxidation sensor C11-BODIPY.

[11] = system: HMC3 microglial cell line; assay: RSL3-induced ferroptosis model, cell viability (CCK-8); assay type: cell-based
HMC3 cells [12] = assay type: cell-based

CC(C)(C)[C@]1(O)C[C@@H]2OC(=O)C[C@@]23C(=O)O[C@@H]2N(CC4C5CC6CC(C5)CC4C6)C(=O)[C@H](OC(=O)c4ccccc4)[C@]213 (stereo partly drawn) [DW192, (3aS,5aS,8R,8aS,9R,10aS)-6-(((1S,5R,7S)-adamantan-2-yl)methyl)-9-(tert-butyl)-9-hydroxy-2,4,7-trioxooctahydro-4H,9H-furo [3″,2″:2′,3′]cyclopenta[1′,2′:3,4]furo[2,3-b]pyrrol-8-yl benzoate]
tumor growth and size (B16 melanoma cells): significantly reduced the growth and size of melanoma tumors
cytotoxic effect across the NCI-60 cell line panel (NCI-60 cell line panel; 10 μM): exhibits cytotoxic effects towards multiple cell lines of different cancer type
lethality (NCI-60 cell line panel; COL0205 (colon cancer), 10 μM): 66.18%
inhibition at 10 µM (NCI-60 cell line panel; Homo sapiens, HOP-62, HOP62 (NSCLC), read-out: growth inhibition): 50.2%
pIC50 (KP-1 cells): 4.80
pIC50 (MCF-7 cells): 4.71
pIC50 (Jurkat cells [1]): 4.66
pIC50 (A549 cells [2]; 48 hours): 4.79
pIC50 (A549 cells [2]; Homo sapiens, A549, 48 h): 4.66
viability at 50 µM (Jurkat cells [3]; Homo sapiens, Jurkat, 48 h, CCK-8, read-out: % Viability (50 uM, 48 h) Jurkat): 43%
% Viability (50 uM, 48 h) Jurkat (Jurkat cells [3]; CCK-8, 50 µM): 43.26%
% Viability (50 uM, 48 h) A549 (A549 cells [4]): 53.19%
viability at 50 µM (A549 cells [4]; Homo sapiens, A549, 48 h, read-out: % Viability (50 uM, 48 h) A549): 53%
viability at 50 µM [5]: 48.2%

CC(C)(C)[C@]1(O)C[C@@H]2OC(=O)C[C@@]23C(=O)O[C@@H]2N(CCc4ccc(O)c(O)c4)C(=O)[C@H](OC(=O)c4ccccc4)[C@]213 [SXQ087-1]
inhibition of RSL3-induced ferroptosis (phenotypic screening, cell viability) [6]: effectively inhibit ferroptosis
inhibition of RSL3-induced ferroptosis (phenotypic screening, cell viability) [7]: effectively inhibit ferroptosis
radical scavenging activity (relative radical level) [8]: significant dose-dependent radical scavenging activity
LC3-II/LC3-I ratio after RSL3 (LC3-II/LC3-I): increasing LC3-II/LC3-I ratio was also reduced
GPX4 level after RSL3 (GPX4): RSL3-induced GPX4 degradation was reduced
cytotoxicity (cell viability) (HMC3 cells [9]): no significant cytotoxicity
lipid peroxidation level (C11-BODIPY) (HMC3 cells [10]): significant down-regulation of RSL3-induced lipid peroxidation accumulation in a dose-dependent manner
inhibition of RSL3-induced ferroptosis (phenotypic screening, cell viability) [11]: effectively inhibit ferroptosis
protection against FIN56-induced cell death (cell viability) (HMC3 cells [12]): effectively suppressed FIN56-induced cell death
protection against ML162 lethality (cell viability) (HMC3 cells [12]): alleviated the lethality of ML162
protection against ML210 lethality (cell viability) (HMC3 cells [12]): alleviated the lethality of ML210
protection against erastin-induced lethality (cell viability) (HMC3 cells [12]): suppressed erastin-induced lethality

Source: patent publication US20250144069A1, “BILOBALIDE DERIVATIVE COMPOUNDS FOR TREATING NEUROLOGICAL DISEASES AND CANCERS” (The Chinese University of Hong Kong, priority 2023, published 2025)
